# Assay results taken from patent US11292801B2, “Calpain modulators and therapeutic uses thereof” (Blade Therapeutics, Inc., priority 2016, dated 2022).
# Assays:
# Human Calpain 9/NS1 = target: T1, Human Calpain 9/NS1 (Homo sapiens, UniProt O14815); assay: Biochemical inhibition of calpain 9, continuous fluorescence (FRET substrate) assay; details: mean, read-out: Human Calpain 9/NS1 IC50 (nM)_MEAN
# T1 sequence (O14815 1-690): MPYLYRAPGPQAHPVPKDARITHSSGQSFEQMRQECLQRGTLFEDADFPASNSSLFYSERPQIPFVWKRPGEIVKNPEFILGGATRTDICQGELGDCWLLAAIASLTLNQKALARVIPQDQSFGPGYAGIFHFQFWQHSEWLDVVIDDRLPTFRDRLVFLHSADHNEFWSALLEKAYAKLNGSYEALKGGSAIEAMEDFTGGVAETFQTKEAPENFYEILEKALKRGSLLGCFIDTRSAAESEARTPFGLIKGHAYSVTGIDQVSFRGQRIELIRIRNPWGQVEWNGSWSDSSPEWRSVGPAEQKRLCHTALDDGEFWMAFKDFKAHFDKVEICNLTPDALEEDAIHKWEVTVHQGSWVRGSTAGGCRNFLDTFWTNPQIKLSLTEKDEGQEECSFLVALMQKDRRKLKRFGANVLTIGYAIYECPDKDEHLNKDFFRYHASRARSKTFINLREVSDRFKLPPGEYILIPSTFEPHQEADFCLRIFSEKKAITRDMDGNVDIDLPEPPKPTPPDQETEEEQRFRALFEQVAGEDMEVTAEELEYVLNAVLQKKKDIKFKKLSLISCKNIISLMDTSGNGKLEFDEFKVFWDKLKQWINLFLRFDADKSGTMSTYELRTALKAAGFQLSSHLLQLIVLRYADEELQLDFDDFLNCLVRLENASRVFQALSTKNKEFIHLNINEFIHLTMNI
# T1 sequence (P04632 1-268 partner): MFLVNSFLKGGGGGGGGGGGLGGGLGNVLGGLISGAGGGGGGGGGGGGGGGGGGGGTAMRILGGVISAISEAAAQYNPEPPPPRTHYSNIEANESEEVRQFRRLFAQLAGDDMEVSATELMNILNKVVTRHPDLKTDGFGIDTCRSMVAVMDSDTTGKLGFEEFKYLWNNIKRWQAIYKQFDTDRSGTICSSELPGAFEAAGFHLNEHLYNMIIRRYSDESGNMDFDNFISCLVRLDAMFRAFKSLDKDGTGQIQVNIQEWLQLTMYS
# Protocol: (§1) Calpain 1, 2, and 9 activity and inhibition thereof are assessed by means of a continuous fluorescence assay. The SensoLyte 520 Calpain substrate (Anaspec Inc) is optimized for detecting calpain activity. This substrate contains a novel internally quenched 5-FAM/QXL™ 520 FRET pair. Calpains 1, 2, and 9 cleave the FRET substrate into two separate fragments resulting in an increase of 5-FAM fluorescence that is proportional to calpain activity.
# (§2) Assays are typically setup in black 384-well plates using automated liquid handling as follows. Calpain assay base buffer typically contains 50 mM Tris, pH˜7.5, 100 mM NaCl and 1 mM DTT. Inhibitors are serially diluted in DMSO and used to setup 2× mixtures with calpains in the aforementioned buffer. After incubation at ambient temperature (25C), the reaction is initiated by adding a 2× mix of the fluorescent peptide substrate and CaCl2) (required for in-situ calpain activation) in the same buffer. Reaction progress curve data are typically collected for 10 min using excitation/emission wavelengths of 490 nm/520 nm on SpectraMax i3× or the FLIPR-Tetra plate readers (Molecular Devices Inc). Reaction rates were calculated from progress curve slopes typically over 1-5 min. Dose response curves (rate vs. log inhibitor concentration) were typically fit to a 4-parameter logistic function to extract IC50 values.
# Human Calpain 1/NS1 = target: T2, Human Calpain 1/NS1 (Homo sapiens, UniProt P07384); assay: Biochemical inhibition of calpain 1, continuous fluorescence (FRET substrate) assay; details: mean, read-out: Human Calpain 1/NS1 IC50 (nM)_MEAN
# T2 sequence (P07384 1-714): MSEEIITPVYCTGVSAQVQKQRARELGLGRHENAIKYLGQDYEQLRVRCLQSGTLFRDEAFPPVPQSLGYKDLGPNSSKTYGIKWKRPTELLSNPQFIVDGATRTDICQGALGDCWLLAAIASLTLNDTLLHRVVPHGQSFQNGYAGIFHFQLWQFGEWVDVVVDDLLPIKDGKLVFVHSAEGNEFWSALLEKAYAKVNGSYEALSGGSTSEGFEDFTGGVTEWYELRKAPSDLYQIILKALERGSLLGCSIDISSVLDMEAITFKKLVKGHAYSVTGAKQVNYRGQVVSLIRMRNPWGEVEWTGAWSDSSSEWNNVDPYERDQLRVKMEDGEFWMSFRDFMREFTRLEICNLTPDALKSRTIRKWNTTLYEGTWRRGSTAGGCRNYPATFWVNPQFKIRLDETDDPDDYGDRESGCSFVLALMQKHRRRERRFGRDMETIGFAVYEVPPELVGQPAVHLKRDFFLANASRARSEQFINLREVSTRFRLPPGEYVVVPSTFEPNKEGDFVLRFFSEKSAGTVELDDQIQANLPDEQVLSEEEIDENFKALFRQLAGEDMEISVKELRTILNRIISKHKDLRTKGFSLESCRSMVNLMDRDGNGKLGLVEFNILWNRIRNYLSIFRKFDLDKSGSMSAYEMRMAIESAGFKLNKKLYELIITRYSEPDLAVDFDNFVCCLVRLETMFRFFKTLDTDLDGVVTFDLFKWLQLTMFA
# T2 sequence (P04632 1-268 partner): T1 sequence (P04632 1-268 partner)
# Protocol: as §1, §2
# Human Calpain 2/NS1 = target: T3, Human Calpain 2/NS1 (Homo sapiens, UniProt P17655); assay: Biochemical inhibition of calpain 2, continuous fluorescence (FRET substrate) assay; details: mean, read-out: Human Calpain 2/NS1 IC50 (nM)_MEAN
# T3 sequence (P17655 1-700): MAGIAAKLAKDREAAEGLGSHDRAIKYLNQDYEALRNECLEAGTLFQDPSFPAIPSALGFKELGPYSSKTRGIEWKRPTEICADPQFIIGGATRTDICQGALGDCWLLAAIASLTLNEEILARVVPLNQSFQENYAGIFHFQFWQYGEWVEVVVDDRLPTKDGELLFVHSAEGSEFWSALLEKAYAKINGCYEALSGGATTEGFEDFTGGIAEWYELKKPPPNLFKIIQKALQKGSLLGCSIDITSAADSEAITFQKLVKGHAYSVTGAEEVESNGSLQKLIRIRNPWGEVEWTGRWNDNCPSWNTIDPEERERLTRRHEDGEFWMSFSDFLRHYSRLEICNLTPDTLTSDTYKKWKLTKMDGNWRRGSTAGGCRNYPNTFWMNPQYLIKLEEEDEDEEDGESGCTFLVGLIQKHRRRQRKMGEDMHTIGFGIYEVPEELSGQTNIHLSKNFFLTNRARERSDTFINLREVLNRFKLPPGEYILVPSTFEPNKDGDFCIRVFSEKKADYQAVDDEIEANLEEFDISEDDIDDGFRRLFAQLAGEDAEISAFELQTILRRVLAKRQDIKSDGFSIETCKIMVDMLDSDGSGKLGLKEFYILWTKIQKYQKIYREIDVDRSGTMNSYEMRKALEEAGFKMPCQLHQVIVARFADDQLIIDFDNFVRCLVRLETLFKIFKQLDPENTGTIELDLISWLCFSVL
# T3 sequence (P04632 1-268 partner): T1 sequence (P04632 1-268 partner)
# Protocol: as §1, §2
Compound,IC50 (Human Calpain 9/NS1) [nM],IC50 (Human Calpain 1/NS1) [nM],IC50 (Human Calpain 2/NS1) [nM]
"O=C(NC1CC1)C(=O)[C@@H]1Cc2ccc(cc2)OC/C=C/COc2cccc(c2)-c2ccn(n2)-c2ncccc2C(=O)N1 [Compound 70, N-cyclopropyl-2-oxo-2-((2^2E,6S,11E)-4-oxo-2^1H-9,14-dioxa-5-aza-3(2,3)-pyridina-2(3,1)-pyrazola-1(1,3),8(1,4)-dibenzenacyclotetradecaphan-11-en-6-yl)acetamide]",< 3000,< 3000,< 3000
"COCCOCCOCCNC(=O)C(=O)C1CCCCOCCOCc2ccccc2C(=O)N1 (stereo not drawn) [Compound 122, N-(2-(2-(2-methoxyethoxy)ethoxy)ethyl)-2-oxo-2-(12-oxo-1,3,4,6,7,8,9,10,11,12-decahydrobenzo[f][1,4]dioxa[9]azacyclotetradecin-10-yl)acetamide]",> 10000,> 10000,> 10000
"O=C[C@@H]1CC=CCCCCOc2ccccc2C(=O)N1 (mixture of isomers) [Compound 5, (S)-11-Oxo-2,3,4,5,8,9,10,11-octahydrobenzo[b][1]oxa[5]azacyclotridecine-9-carbaldehyde]",< 3000,> 10000,3000 to 10000
"NC(=O)C(=O)[C@@H]1CCCCCOc2cccc(c2)-c2n[nH]cc2C(=O)N1 [Compound 140, (S)-2-oxo-2-(11-oxo-1H-3-oxa-10-aza-1(3,4)-pyrazola-2(1,3)-benzena-cycloundecaphane-9-yl)acetamide]",< 3000,< 3000,< 3000
"O=C[C@@H]1CC=CCOCCOc2ccccc2C(=O)N1 [Compound 18, (S)-11-Oxo-2,3,8,9,10,11-hexahydro-5h-benzo[e][1,4]dioxa[8]azacyclotridecine-9-carbaldehyde]",3000 to 10000,> 10000,> 10000
"NC(=O)C(=O)[C@@H]1CCCCCOc2ccc(F)c(c2)-c2ccccc2C(=O)N1 [Compound 148, (S)-2-(2^6-fluoro-11-oxo-3-oxa-10-aza-1(1,2),2(1,3)-dibenzena-cycloundecaphane-9-yl)-2-oxoacetamide]",< 3000,< 3000,< 3000
"O=C(NCc1cccnc1)C(=O)C1CCCCOCCOCc2ccccc2C(=O)N1 (stereo not drawn) [Compound 103, 2-Oxo-2-(12-oxo-1,3,4,6,7,8,9,10,11,12-decahydrobenzo[f][1,4]dioxa[9]aza-cyclotetradecin-10-yl)-N-(pyridin-3-ylmethyl)acetamide]",< 3000,> 10000,> 10000
"O=C[C@@H]1Cc2ccc(cc2)CC=CCc2cccc(c2)-c2ccn(n2)-c2ncccc2C(=O)N1 [Compound 75, (2^2E,10S)-12-oxo-2^1H-11-aza-1(2,3)-pyridina-2(1,3)-pyrazola-3(1,3),8(1,4)-dibenzenacyclododecaphan-5-ene-10-carbaldehyde]",< 3000,< 3000,< 3000
"O=C[C@@H]1CCCCCOc2ccnc(c2)-c2ccccc2C(=O)N1 [Compound 149, (S)-3-oxo-11-oxa-4-aza-1(2,4)-pyridina-2(1,2)-benzenacycloundecaphane-5-carbaldehyde]",< 3000,< 3000,< 3000
"O=C[C@@H]1Cc2ccccc2CCCOCc2ccccc2C(=O)N1 [Compound 31, (S)-17-Oxo-5,7,8,9,14,15,16,17-octahydrodibenzo[c,i][1]oxa[6]aza-cyclotridecine-15-carbaldehyde]",< 3000,< 3000,< 3000
"O=C[C@@H]1C/C=C/CCCCCCCc2ccccc2C(=O)N1 [Compound 23, (S,E)-1-Oxo-2,3,4,7,8,9,10,11,12,13-decahydro-1h-benzo[c][1]aza-cyclopentadecine-3-carbaldehyde]",< 3000,< 3000,< 3000
"C/C1=C\C[C@@H](C(=O)C(N)=O)NC(=O)c2cc(C)nn2-c2cccc(c2)OCC1 [Compound 145, (S,E)-2-(1^3,6-dimethyl-11-oxo-1H-3-oxa-10-aza-1(1,5)-pyrazola-2(1,3)-benzenacycloundecaphan-6-en-9-yl)-2-oxoacetamide]",< 3000,< 3000,< 3000
"CCOc1ccccc1CNC(=O)C(=O)C1CCCCOCCOCc2ccccc2C(=O)N1 (stereo not drawn) [Compound 102, N-(2-ethoxybenzyl)-2-oxo-2-(12-oxo-1,3,4,6,7,8,9,10,11,12-decahydrobenzo[f][1,4]dioxa[9]azacyclotetradecin-10-yl)acetamide]",< 3000,3000 to 10000,< 3000
"NC(=O)C(=O)[C@@H]1C/C=C\CCOc2ccnc(n2)-c2ccccc2C(=O)N1 [Compound 138, (S,Z)-2-oxo-2-(3-oxo-11-oxa-4-aza-1(2,4)-pyrimidina-2(1,2)-benzenacycloundecaphan-7-en-5-yl)acetamide]",< 3000,< 3000,< 3000
"O=C[C@@H]1CCCCCCOc2ccccc2C(=O)N1 [Compound 24, (S)-10-Oxo-3,4,5,6,7,8,9,10-octahydro-2h-benzo[b][1]oxa[5]aza-cyclododecine-8-carbaldehyde]",< 3000,> 10000,< 3000
"O=C[C@@H]1C/C=C\COCCOCc2ccccc2C(=O)N1 [Compound 1, (S,Z)-12-Oxo-1,3,4,6,9,10,11,12-octahydrobenzo[f][1,4]dioxa[9]azacyclo-tetradecine-10-carbaldehyde]",< 3000,> 10000,< 3000
